# Data from the kinase profiling compilation of Christmann-Franck et al. (2016).
# Key:
# Test in all cases: KINOMEscan competition binding
# Conditions in all cases: compound 0.1 µM
# TAOK2 (human) = TAOK2 (human) (UniProt Q9UL54)
# [1] = test system: FGFR3 (human), P22607 [G697C]
# [2] = test system: PIK3CA (human), P42336 [Q546K]
# AURKB (human) = AURKB (human) (UniProt Q96GD4)
# CDK4 CCND3 (human) = CDK4 CCND3 (human) (UniProt P11802+P30281)
# [3] = biological target: JAK3 JH1 catalytic (human) (UniProt P52333)
# RET (human) = RET (human) (UniProt P07949)
# LRRK2 (human) = LRRK2 (human) (UniProt Q5S007)
# RAF1 (human) = RAF1 (human) (UniProt P04049)
# CSNK2A1 (human) = CSNK2A1 (human) (UniProt P68400)
# [4] = test system: ABL1 (human), P00519 [Q252H]
# CAMK2A (human) = CAMK2A (human) (UniProt Q9UQM7)
# DSTYK (human) = DSTYK (human) (UniProt Q6XUX3)
# Chain of DSTYK (human) (Q6XUX3 whole entry, looked up): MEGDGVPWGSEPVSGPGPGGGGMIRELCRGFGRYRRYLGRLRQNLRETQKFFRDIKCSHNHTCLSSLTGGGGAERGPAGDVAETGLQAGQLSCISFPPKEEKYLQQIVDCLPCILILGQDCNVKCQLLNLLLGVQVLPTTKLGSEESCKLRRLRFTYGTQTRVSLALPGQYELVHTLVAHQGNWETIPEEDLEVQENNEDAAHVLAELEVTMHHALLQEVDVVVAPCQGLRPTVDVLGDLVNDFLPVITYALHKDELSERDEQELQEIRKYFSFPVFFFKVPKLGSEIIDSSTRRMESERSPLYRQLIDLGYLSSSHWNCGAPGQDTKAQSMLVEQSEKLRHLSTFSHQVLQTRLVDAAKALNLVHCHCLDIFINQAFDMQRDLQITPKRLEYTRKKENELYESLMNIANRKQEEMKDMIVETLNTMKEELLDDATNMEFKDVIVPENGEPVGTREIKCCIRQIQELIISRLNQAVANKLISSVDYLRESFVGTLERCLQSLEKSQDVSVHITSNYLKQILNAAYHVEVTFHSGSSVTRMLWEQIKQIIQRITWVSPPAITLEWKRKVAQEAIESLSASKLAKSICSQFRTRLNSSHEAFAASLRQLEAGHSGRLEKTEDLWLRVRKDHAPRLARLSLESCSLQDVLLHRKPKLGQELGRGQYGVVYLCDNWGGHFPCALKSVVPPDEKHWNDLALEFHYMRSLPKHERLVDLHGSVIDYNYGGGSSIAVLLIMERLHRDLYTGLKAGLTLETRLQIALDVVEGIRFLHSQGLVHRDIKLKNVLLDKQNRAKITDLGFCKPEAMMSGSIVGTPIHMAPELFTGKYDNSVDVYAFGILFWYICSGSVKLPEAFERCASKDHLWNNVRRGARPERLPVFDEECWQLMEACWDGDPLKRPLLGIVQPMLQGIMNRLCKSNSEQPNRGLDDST
# NEK4 (human) = NEK4 (human) (UniProt P51957)
# RPS6KA3 KD2 (human) = RPS6KA3 KD2 (human) (UniProt P51812)
# Chain of RPS6KA3 KD2 (human) (P51812 whole entry, looked up): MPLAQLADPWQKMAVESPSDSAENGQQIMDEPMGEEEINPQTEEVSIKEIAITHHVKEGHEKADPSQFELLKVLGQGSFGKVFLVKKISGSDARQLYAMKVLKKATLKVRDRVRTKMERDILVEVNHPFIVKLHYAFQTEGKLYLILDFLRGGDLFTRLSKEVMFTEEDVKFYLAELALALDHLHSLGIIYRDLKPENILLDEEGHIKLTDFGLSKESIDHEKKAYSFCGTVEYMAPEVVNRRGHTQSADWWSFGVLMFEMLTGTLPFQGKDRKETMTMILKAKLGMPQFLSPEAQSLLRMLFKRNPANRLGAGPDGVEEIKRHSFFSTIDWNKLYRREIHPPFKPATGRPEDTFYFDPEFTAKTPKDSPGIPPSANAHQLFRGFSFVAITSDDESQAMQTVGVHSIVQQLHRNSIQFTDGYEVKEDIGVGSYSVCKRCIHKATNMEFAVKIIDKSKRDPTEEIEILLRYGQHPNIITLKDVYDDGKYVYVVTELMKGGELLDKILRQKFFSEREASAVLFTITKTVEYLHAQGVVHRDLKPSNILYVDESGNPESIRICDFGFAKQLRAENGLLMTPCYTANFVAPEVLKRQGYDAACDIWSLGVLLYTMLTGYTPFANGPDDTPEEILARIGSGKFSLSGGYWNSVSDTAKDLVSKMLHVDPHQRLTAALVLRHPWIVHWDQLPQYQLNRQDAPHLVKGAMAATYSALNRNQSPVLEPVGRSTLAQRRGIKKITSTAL
# MAP3K14 (human) = MAP3K14 (human) (UniProt Q99558)
# BMPR1A (human) = BMPR1A (human) (UniProt P36894)
# SNRK (human) = SNRK (human) (UniProt Q9NRH2)
# TNK1 (human) = TNK1 (human) (UniProt Q13470)
# WNK3 (human) = WNK3 (human) (UniProt Q9BYP7)
# Chain of WNK3 (human) (Q9BYP7 whole entry, looked up): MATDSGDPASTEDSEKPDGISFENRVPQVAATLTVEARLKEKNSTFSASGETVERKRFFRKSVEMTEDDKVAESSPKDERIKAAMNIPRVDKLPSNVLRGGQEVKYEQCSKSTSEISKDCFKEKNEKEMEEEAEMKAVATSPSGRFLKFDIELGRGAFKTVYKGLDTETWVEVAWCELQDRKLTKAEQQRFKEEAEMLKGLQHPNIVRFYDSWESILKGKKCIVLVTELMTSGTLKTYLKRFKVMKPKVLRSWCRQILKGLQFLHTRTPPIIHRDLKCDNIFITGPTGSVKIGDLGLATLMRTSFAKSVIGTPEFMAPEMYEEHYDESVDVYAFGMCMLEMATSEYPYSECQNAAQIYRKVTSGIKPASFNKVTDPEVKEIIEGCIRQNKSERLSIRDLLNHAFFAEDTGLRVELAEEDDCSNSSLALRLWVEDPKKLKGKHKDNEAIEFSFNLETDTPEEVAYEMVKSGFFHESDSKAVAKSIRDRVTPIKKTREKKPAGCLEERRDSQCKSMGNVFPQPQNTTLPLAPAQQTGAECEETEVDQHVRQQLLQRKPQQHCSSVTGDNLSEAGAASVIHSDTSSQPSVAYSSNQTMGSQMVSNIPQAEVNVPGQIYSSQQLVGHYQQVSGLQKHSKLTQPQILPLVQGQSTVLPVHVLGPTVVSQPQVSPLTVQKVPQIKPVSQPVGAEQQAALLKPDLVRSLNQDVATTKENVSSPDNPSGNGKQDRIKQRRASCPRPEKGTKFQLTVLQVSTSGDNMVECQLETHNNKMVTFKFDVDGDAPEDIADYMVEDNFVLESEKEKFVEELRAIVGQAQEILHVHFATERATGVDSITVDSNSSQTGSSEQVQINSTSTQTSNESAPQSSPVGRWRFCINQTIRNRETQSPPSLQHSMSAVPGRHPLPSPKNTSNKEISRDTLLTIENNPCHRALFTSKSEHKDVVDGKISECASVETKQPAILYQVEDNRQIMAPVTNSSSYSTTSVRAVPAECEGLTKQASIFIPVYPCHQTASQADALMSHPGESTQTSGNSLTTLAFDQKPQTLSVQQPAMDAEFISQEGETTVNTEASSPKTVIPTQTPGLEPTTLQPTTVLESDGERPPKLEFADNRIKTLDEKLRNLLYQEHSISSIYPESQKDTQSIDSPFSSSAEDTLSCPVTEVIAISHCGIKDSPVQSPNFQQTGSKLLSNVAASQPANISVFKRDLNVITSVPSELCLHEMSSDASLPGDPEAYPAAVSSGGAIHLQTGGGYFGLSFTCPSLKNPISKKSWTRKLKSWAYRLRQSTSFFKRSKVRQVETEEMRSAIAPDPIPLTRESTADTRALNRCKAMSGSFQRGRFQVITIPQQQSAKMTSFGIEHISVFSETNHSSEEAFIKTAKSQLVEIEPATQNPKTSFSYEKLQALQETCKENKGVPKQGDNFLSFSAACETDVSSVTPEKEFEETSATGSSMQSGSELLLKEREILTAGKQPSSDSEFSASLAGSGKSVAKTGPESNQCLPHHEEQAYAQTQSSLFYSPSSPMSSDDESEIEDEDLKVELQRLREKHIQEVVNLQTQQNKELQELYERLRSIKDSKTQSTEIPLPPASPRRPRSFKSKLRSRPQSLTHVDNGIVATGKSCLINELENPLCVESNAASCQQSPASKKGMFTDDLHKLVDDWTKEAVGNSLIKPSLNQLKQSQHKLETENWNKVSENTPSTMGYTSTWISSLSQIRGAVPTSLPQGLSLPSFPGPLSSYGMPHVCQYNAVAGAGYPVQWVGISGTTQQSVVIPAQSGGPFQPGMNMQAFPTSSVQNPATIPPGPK
# CDK19 (human) = CDK19 (human) (UniProt Q9BWU1)
# PRKCI (human) = PRKCI (human) (UniProt P41743)
# Chain of PRKCI (human) (P41743 whole entry, looked up): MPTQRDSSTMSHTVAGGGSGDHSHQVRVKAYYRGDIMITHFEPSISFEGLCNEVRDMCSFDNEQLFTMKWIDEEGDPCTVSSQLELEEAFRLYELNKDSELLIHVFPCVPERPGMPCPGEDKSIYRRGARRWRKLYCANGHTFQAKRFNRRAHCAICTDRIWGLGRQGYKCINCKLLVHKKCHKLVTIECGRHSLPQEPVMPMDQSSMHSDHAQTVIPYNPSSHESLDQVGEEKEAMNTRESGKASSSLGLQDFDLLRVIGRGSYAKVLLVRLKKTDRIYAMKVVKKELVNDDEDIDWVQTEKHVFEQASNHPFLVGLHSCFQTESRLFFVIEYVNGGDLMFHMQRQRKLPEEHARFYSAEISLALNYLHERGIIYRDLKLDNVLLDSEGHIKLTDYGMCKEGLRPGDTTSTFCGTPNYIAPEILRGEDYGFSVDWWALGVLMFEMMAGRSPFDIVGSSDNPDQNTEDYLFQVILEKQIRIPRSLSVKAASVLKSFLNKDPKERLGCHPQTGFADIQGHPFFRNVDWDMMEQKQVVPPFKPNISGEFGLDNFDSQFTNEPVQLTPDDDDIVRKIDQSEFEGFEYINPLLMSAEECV
# FGFR4 (human) = FGFR4 (human) (UniProt P22455)
# STK3 (human) = STK3 (human) (UniProt Q13188)
# [5] = test system: RET (human), P07949 [M918T]
# NEK7 (human) = NEK7 (human) (UniProt Q8TDX7)
# SGK2 (human) = SGK2 (human) (UniProt Q9HBY8)
# Chain of SGK2 (human) (Q9HBY8 whole entry, looked up): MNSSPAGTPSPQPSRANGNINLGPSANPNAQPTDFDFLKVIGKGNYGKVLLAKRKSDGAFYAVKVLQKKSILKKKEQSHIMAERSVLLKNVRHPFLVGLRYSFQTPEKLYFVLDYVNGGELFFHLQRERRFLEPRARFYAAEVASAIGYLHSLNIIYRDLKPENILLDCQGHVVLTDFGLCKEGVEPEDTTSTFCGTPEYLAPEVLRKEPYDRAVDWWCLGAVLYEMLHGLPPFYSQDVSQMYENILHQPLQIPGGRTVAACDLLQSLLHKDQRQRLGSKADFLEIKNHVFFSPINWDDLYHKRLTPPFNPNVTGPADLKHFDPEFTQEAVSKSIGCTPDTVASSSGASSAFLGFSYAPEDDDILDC
# WEE2 (human) = WEE2 (human) (UniProt P0C1S8)
# Chain of WEE2 (human) (P0C1S8 whole entry, looked up): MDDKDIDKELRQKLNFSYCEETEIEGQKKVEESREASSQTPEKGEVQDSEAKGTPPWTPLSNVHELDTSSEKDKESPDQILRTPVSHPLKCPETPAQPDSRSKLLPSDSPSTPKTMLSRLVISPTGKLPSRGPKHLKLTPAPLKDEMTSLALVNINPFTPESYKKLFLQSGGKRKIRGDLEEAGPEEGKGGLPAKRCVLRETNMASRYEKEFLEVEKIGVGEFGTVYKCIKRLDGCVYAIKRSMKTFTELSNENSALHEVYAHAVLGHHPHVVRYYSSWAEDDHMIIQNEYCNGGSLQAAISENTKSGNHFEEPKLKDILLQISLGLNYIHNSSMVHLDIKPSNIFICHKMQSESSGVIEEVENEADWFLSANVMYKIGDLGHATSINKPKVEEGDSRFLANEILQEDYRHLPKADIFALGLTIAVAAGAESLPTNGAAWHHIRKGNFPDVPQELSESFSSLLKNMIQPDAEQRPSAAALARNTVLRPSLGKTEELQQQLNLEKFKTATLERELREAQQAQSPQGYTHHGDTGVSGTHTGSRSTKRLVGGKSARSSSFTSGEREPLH
# MAP3K7 (human) = MAP3K7 (human) (UniProt O43318)
# PIK3CB (human) = PIK3CB (human) (UniProt P42338)
# MAP3K9 (human) = MAP3K9 (human) (UniProt P80192)
# TLK2 (human) = TLK2 (human) (UniProt Q86UE8)
# IKBKB (human) = IKBKB (human) (UniProt O14920)
# [6] = test system: KIT (human), P10721 [D816H]
# STK33 (human) = STK33 (human) (UniProt Q9BYT3)
# STK24 (human) = STK24 (human) (UniProt Q9Y6E0)
# [7] = test system: EGFR (human), P00533 [752-759 del]
# EPHA4 (human) = EPHA4 (human) (UniProt P54764)
# MAPK15 (human) = MAPK15 (human) (UniProt Q8TD08)
# AKT1 (human) = AKT1 (human) (UniProt P31749)
smiles,measurement,setting,value
CCc1ccc(C(=O)Nc2cc(CN3CCN(C)CC3)cc(C(F)(F)F)c2)cc1C#Cc1cnc2ccnn2c1,"kinase still bound, per cent of control",TAOK2 (human),100%
same,"kinase still bound, per cent of control",[1],90%
same,"kinase still bound, per cent of control",[2],100%
same,"kinase still bound, per cent of control",AURKB (human),100%
same,"kinase still bound, per cent of control",CDK4 CCND3 (human),100%
same,"kinase still bound, per cent of control",[3],58%
same,"kinase still bound, per cent of control",RET (human),52%
same,"kinase still bound, per cent of control",LRRK2 (human),86%
same,"kinase still bound, per cent of control",RAF1 (human),57%
same,"kinase still bound, per cent of control",CSNK2A1 (human),100%
same,"kinase still bound, per cent of control",[4],100%
same,"kinase still bound, per cent of control",CAMK2A (human),92%
same,"kinase still bound, per cent of control",DSTYK (human),100%
same,"kinase still bound, per cent of control",NEK4 (human),100%
same,"kinase still bound, per cent of control",RPS6KA3 KD2 (human),100%
same,"kinase still bound, per cent of control",MAP3K14 (human),85%
same,"kinase still bound, per cent of control",BMPR1A (human),100%
same,"kinase still bound, per cent of control",SNRK (human),75%
same,"kinase still bound, per cent of control",TNK1 (human),52%
same,"kinase still bound, per cent of control",WNK3 (human),100%
same,"kinase still bound, per cent of control",CDK19 (human),90%
same,"kinase still bound, per cent of control",PRKCI (human),100%
same,"kinase still bound, per cent of control",FGFR4 (human),86%
same,"kinase still bound, per cent of control",STK3 (human),100%
same,"kinase still bound, per cent of control",[5],46%
same,"kinase still bound, per cent of control",NEK7 (human),95%
same,"kinase still bound, per cent of control",SGK2 (human),94%
same,"kinase still bound, per cent of control",WEE2 (human),84%
same,"kinase still bound, per cent of control",MAP3K7 (human),100%
same,"kinase still bound, per cent of control",PIK3CB (human),100%
same,"kinase still bound, per cent of control",MAP3K9 (human),100%
same,"kinase still bound, per cent of control",TLK2 (human),100%
same,"kinase still bound, per cent of control",IKBKB (human),97%
same,"kinase still bound, per cent of control",[6],81%
same,"kinase still bound, per cent of control",STK33 (human),100%
same,"kinase still bound, per cent of control",STK24 (human),100%
same,"kinase still bound, per cent of control",[7],100%
same,"kinase still bound, per cent of control",EPHA4 (human),97%
same,"kinase still bound, per cent of control",MAPK15 (human),100%
same,"kinase still bound, per cent of control",AKT1 (human),81%
